Test results: patent publication US8901118B2, “Compounds and methods for kinase modulation, and indications therefor” (Plexxikon Inc., priority 2010, dated 2014)

Tests used:
BCR-KIT BaF3 cells = target: T1, BCR-KIT BaF3 cells (Homo sapiens, UniProt P10721); assay: BaF3 BCR-KIT cell proliferation assay (ATPlite); type: cell-based; conditions: read-out: Inhibition of Cell Proliferation IC50, BCR/BaF3 Kit
T1 construct: fused on or other part: P11274 (Breakpoint cluster region protein)
Outline: (§1)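 IL-3-free growth, 3-day compound exposure (8-point 1:3 titration, top 10 μM, DMSO control), 37 °C 5% CO2. BaF3 10,000 or MV-4-11 25,000 cells/well, plated overnight beforehand. Read-out ATPlite luminescence vs concentration → IC50.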

BCR-NTRK1 BaF3 cells = target: T2, BCR-NTRK1 BaF3 cells (Homo sapiens, UniProt P04629); assay: BaF3 BCR-NTRK1 cell proliferation assay (ATPlite); type: cell-based; conditions: read-out: Inhibition of Cell Proliferation IC50, BCR/BaF3 TrkA
T2 construct: fused on or other part: P11274 (Breakpoint cluster region protein)
T2 sequence (P04629 510-781): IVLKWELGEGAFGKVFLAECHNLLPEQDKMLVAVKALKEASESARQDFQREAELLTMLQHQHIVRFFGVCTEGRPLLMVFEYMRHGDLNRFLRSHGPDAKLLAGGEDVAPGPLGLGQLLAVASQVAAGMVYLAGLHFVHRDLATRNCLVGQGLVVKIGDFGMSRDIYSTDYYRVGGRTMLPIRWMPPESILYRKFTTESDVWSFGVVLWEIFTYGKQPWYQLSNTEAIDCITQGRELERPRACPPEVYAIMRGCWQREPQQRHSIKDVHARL
Outline: as §1

CYP2D6 = CYP2D6 (Homo sapiens, UniProt P10635); assay: CYP2D6 inhibition (fluorescent substrate AMMC); type: in vitro ADME; conditions: read-out: Cyp IC50 2D6
Chain of CYP2D6 (P10635 whole entry): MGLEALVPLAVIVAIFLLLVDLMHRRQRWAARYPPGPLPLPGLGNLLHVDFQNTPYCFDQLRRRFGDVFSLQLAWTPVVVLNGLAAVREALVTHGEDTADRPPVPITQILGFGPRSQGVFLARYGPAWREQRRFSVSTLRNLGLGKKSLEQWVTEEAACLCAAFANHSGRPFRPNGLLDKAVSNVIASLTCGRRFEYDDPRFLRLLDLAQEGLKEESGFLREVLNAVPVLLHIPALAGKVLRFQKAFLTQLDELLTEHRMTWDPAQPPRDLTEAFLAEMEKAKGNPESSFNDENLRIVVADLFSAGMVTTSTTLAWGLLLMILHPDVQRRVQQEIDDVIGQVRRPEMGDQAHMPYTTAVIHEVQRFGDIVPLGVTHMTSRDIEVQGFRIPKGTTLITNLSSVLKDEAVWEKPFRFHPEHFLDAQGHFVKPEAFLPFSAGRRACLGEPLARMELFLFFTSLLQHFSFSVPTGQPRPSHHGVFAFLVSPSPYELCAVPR
Outline: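 10-pt 1:1 dilution series (from 100 mM DMSO stock) in NADPH regen cofactor mix, 5% MeCN; 10 min preincubation at 37 °C. Enzyme reaction 37 °C: 1A2 15 min, 2C9 45 min, 2C19/2D6 30 min. Fluorescence readout; IC50 fit.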

T1 sequence (P10721 589-937): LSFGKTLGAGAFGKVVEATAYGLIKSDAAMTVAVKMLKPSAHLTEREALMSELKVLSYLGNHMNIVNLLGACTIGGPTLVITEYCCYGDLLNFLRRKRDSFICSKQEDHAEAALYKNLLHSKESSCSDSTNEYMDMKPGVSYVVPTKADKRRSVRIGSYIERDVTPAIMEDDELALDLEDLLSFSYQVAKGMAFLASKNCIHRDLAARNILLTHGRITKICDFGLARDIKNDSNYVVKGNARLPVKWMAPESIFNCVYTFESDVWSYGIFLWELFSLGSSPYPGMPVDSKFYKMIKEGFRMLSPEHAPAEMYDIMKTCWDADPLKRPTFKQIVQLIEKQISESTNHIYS

IC50 (BCR-KIT BaF3 cells): > 1000 nM
IC50 (BCR-NTRK1 BaF3 cells): < 1000 nM
IC50 (CYP2D6): > 10000 nM
SMILES: O=C(c1ccc(NC2CCC(F)(F)CC2)nc1Cl)c1c[nH]c2ncnc(NC3CC3)c12 [Compound P-4059, [2-chloro-6-[(4,4-difluorocyclohexyl)amino]-3-pyridyl]-[4-(cyclopropylamino)-7H-pyrrolo[2,3-d]pyrimidin-5-yl]methanone]
